Ends that are not written are not given here.
Columns and labels:
[1] = tested on: AAV2-GFP; test: Transduction efficiency (TU:VG ratio) of AAV2-GFP packaged in cells expressing a CP; format: cell-based, adeno-associated virus; details: for transduction efficiency of AAV2-GFP produced in the presence of CP: FIG. 23, CP plasmid 0.3 ng to 100 ng, versus control without CP
Description: AAV2-GFP were harvested and assayed for biological and physical titer as described in FIG. 20
FIG. 24. […] This figure depicts the raw flow cytometry data used to determine the biological titer of AAV samples. This is an example of the data that was used to determine the biological titers in FIG. 23. The X-axis of each graph represents the forward light scattering (FSC) from flow cytometry. The Y-axis represents the GFP intensity of each cell. A 1000-fold dilution of AAV2-GFP particles produced either in the presence (A) or absence (B) of cyclic peptide were used to transduce HEK293 cells. A 1000-fold dilution of the preparation was used (e.g., without physical titer normalization) to ensure a direct, batch-to-batch comparison of the impact of cyclic peptide on viral packaging performance.
As used herein, the term “transduction efficiency” refers to the effectiveness (efficiency) of viral particles in delivering their genetic payload to the target cells. This efficiency may be represented by the transducing units to vector genomes ratio (TU:VG). Viral formulations with enhanced transduction efficiency can achieve greater numbers of DNA delivery events for the same number of DNA-containing viral particles. […] Enhanced transduction efficiency may be achieved by optimizing the cellular environment for viral production, leading to viral particles with improved capsid structure, viral particle biochemistry, or viral particle assembly. Increasing transduction efficiency refers to improvements in the TU:VG ratio, which encompasses both infectivity and biological titer.
• 1. A 100-mm cell culture dish was reseeded with 4.0×10^6 Hek293T cells in high glucose DMEM culture medium supplemented with 10% FBS. • 2. […] A jetOPTIMUS DNA transfection reagent i used during the transfection protocol (from Polyplus). • 3. 12-16 hours after transfection, media was replaced with low glucose DMEM culture medium supplemented with 1% FBS, 1×Glutamax, 10 mM HEPES, and 0.075% sodium bicarbonate. • 4. Cells and media were harvested 4 days after transfection and frozen in 1 mL aliquots. • 5. Frozen aliquots were thawed and lysed using AAVMax Lysis Reagent (Life Technologies, USA, A50520). 100 uL of AAVMax Lysis buffer was added to 900 uL of cell and media. Mixture was incubated for 2 hours with rotating. Debris was pelleted at 5,000xg for 15 minutes. AAV containing supernatant was collected. • 6. The physical and biological titers of the harvested AAV samples were determined by qPCR and biological viral titer measurement as described in Example 1.
Full, but non-functional viral particles represent a major manufacturing challenge for AAV gene therapies. At present, there is no process capable of purifying the functional viral particles from the full, but non-functional fraction.

[2] = tested on: Lentivirus; test: Lentivirus particle (physical) titer by Lenti-X GoStix Plus after packaging with a CP generator plasmid; format: cell-based; details: FIG. 25; generator plasmid 0.5, 5, 50 ng; normalised to six no-CP controls
Protocol: (§1) Cyclic peptides are used herein to improve viral titer and transduction efficiency during lentiviral production. Lentivirus was produced using Takara Bio lentivirus packaging kit either with (left panels) or without (right panels; bars labeled CTRL) a cyclic peptide generator plasmid. The cyclic peptides produced by different amounts (e.g., 0.5 ng, 5 ng and 50 ng) of corresponding generator plasmids were CSSLT (SEQ ID NO: 37), CGSTKS (SEQ ID NO: 43), CKYEE (SEQ ID NO: 40), CPYTD (SEQ ID NO: 44), CPLQVP (SEQ ID NO: 45). 5 ng plasmid experiment for CGSTKS (SEQ ID NO: 43) failed and is not shown. The virus was collected, and particle titers were enumerated using Takara Bio Lenti-X GoStix Plus quantitative lentiviral titer test. The biological titer was determined by transducing fresh HEK293 cells with the various lentiviral preparations (e.g., packaged with or without a cyclic peptide). The fold difference in particle titer and transduction unit titer is calculated by normalizing to the average of six control lentiviral transductions from packaging runs without cyclic peptide. The control (CTRL) conditions illustrate negligible noise.
This example illustrates methodologies for Cyclic peptide-enhanced lentiviral vector production. • 1) Cells were seeded at 4-5×10^6 cells per 10-cm plate, 24 hours prior to transfection, to achieve 80-90% confluence at the time of transfection. • 2) 7.0 μg of lentiviral vector plasmid DNA was diluted in sterile water to a volume of 600 μl along with a cyclic peptide generator that expresses a cyclic peptide. • 3) Titration of cyclic peptide plasmid DNA concentrations, from 0.5 ng to 50 ng, was used in this Example. However, the amount of required plasmid DNA depends on many factors, including the specific cyclic peptide being expressed, the cyclic peptide generator (e.g. more efficient cyclic peptide generators may need less DNA), and promoter strength (the pCMV promoter driving strong expression is used in this Example). • 4) Between 4-8 control conditions (depending on number of experimental conditions) were also prepared that are identical to the above, except that no cyclic peptide plasmid was added. • 5) This DNA was added to a tube of Lenti-X Packaging Single Shots and vortexed to mix. • 6) The mixture was incubated for 10 minutes at room temperature to allow the formation of nanoparticle complexes, then briefly centrifuged. • 7) The entire 600 μl of nanoparticle complex solution was added dropwise to the packaging cells, which were then rocked gently to mix. • 8) Lentiviral packaging. […] They were centrifuged or filtered to remove cellular debris, using a filter of cellulose acetate or polysulfone, not nitrocellulose. • 10) Virus production was verified and can be quantified using Lenti-X GoStix™ Plus or any other standard methodology. Then, the virus can be used to transduce target cells or stored at −80° C. • 11) Next, for each viral production condition (e.g., different cyclic peptide packaging conditions, CP dosages, and controls), a three order of magnitude serial dilution at 10-fold dilution steps was performed. • 12) All viral samples were then transduced, harboring a GFP transgene, into fresh HEK293 cells. • 13) After 3 days, the transduced cells were collected, and analyzed them by flow cytometry (see FIG. 26). • 14) Finally, the biological titer (flow cytometry) and physical titer (GoStix) were normalized to the no-CP control to determine the fold improvements in both viral titer and infectiousness. […]

[3] = tested on: Lentivirus; test: Lentivirus biological titer (flow cytometry of transduced HEK293 cells) after packaging with a CP generator plasmid; format: cell-based; details: for lentiviral biological (transduction unit) titer, fold difference to control: FIG. 25, generator plasmid 0.5, 5, 50 ng, HEK293 cells
Protocol: as §1
FIG. 26. Exemplary representative flow cytometry raw data illustrating that when cyclic peptide CGSTKS (SEQ ID NO: 43) is present during lentiviral production, the biological titer increases by over 8-fold compared to when the cyclic peptide is absent. This figure depicts the raw flow cytometry data used to determine the biological titer of lentiviral samples. This is an example of the data that was used to determine the lentiviral biological titers in FIG. 25. The X-axis of each graph represents the forward light scattering (FSC) from flow cytometry. The Y-axis represents the GFP intensity of each cell. A 100-fold dilution of Lentivirus with a GFP payload produced either in the presence (A) or absence (B) of cyclic peptide were used to transduce HEK293 cells. A 100-fold dilution of the preparation was used (e.g., without physical titer normalization) to ensure a direct, batch-to-batch comparison of the impact of the cyclic peptide on viral packaging performance. • Part A—Flow cytometry raw data (with minor forward and side scatter gating to remove irrelevant particles) of HEK293 transduced with a lentiviral preparation produced in the presence of cyclic peptide CGSTKS (SEQ ID NO: 43) generated from a plasmid constructed transduced into packaging cells at 0.5 ng. • Part B—Flow cytometry raw data (with minor forward and side scatter gating to remove irrelevant particles) of HEK293 transduced with a lentiviral preparation produced without cyclic peptide.
This example illustrates methodologies for Cyclic peptide-enhanced lentiviral vector production. • 1) Cells were seeded at 4-5×10^6 cells per 10-cm plate, 24 hours prior to transfection, to achieve 80-90% confluence at the time of transfection. • 2) 7.0 μg of lentiviral vector plasmid DNA was diluted in sterile water to a volume of 600 μl along with a cyclic peptide generator that expresses a cyclic peptide. • 3) Titration of cyclic peptide plasmid DNA concentrations, from 0.5 ng to 50 ng, was used in this Example. […]

Substance	transduction efficiency of AAV2-GFP produced in the presence of CP [1]	lentiviral physical (particle) titer, fold difference to control [2]	lentiviral biological (transduction unit) titer, fold difference to control [3]	increase of lentiviral biological titer ([3]; FIG. 26, generator plasmid at 0.5 ng, 100-fold dilution on HEK293 cells, versus no CP)	increased transduction efficiency (TU:VG ratio) ([1]; FIG. 21 legend, data not shown) [×]
CQVFQL: engineered cyclic peptide, SEQ ID NO: 42 (also: cyclic, closure not given here)	improvements in transduction efficiency				
CGSTKS: engineered cyclic peptide, SEQ ID NO: 43 (also: cyclic, closure not given here)		unexpected degree of improvement	unexpected degree of improvement	over 8 fold	
CCRPH: engineered cyclic peptide, printed as SEQ ID NO: 37	improvements in transduction efficiency				
CSSLT: engineered cyclic peptide, SEQ ID NO: 37 (also: cyclic, closure not given here)	improvements in transduction efficiency	unexpected degree of improvement	unexpected degree of improvement		
CYNHAR: engineered cyclic peptide, SEQ ID NO: 35, corresponds to generator plasmid T2851-8 (cyclic; Cyclic peptide that was found to increase or decrease AAV viral titer in a dose-responsive manner.)					~2.4
CTHKVS: engineered cyclic peptide, SEQ ID NO: 38 (also: cyclic, closure not given here)	improvements in transduction efficiency				
CRVSY: engineered cyclic peptide, SEQ ID NO: 41 (also: cyclic, closure not given here)	improvements in transduction efficiency				
CPLQVP: engineered cyclic peptide, SEQ ID NO: 45 (also: cyclic, closure not given here)		unexpected degree of improvement	unexpected degree of improvement		
CPYTD: engineered cyclic peptide, SEQ ID NO: 44 (also: cyclic, closure not given here)		unexpected degree of improvement	unexpected degree of improvement		
CKYEE: engineered cyclic peptide, SEQ ID NO: 40 (also: cyclic, closure not given here)	improvements in transduction efficiency	unexpected degree of improvement	unexpected degree of improvement		
